Measurements as given in patent publication US20230381094A1, “Cosmetic Composition with Skin Microbiome-Friendly Properties” (LG Household & Health Care Ltd., priority 2022, published 2023).

System: Staphylococcus epidermidis
Assay: Beneficial skin bacteria affinity evaluation (challenge test)
Type: cell-based
Conditions: Experimental Example 1; ingredient in oil-in-water composition of Preparation Example 1; FIG. 2 / FIG. 3
Source text: As the beneficial bacteria serving as the affinity evaluation criterion of each composition prepared in Preparation Example 1, Staphylococcus epidermidis (S. epidermidis), a Gram positive bacterium, was selected. S. epidermidis is part of the skin flora present in large numbers in healthy skin, and is a representative beneficial bacterium that helps improve skin immunity and protect skin from external environmental factors by producing peptide antibiotics or PSM (phenol-soluble modulins) (Parlet, C. P., et al. (2019) Trends in microbiology, 27(6), 497-507). The evaluation of affinity for beneficial bacteria was performed by the challenge test method (Russell A. D., (2003), Int J Cosmet Sci., 25(3), 147-153) as follows.
Specifically, S. epidermidis was first incubated in TSA (Tryptic Soy Agar) medium at 37° C. for 24 hours, and then inoculated into 50.0 g of each composition prepared in Preparation Example 1 so as to be 1×10^6 CFU to 1×10^7 CFU (colony-forming units)/mL. After inoculation, the bacteria were evenly mixed in the composition by vortexing or using a sterilized stick. After inoculation, the mixture was stored at room temperature. In consideration of the product usage cycle, such as cosmetics, and the general usage patterns of these products, a maximum of 24 hours was set as the time required for examination. With this determination, 24 hours after inoculation, 1 mL of the composition inoculated with the bacteria was diluted stepwise using a 0.85% NaCl solution, 100 μL of each diluted solution was spread on TSA medium, incubation was conducted at 37° C. for 48 hours, and then CFUs were counted.
As the affinity evaluation criterion, the following “bacterial growth index*” parameter was used, and a composition having a bacterial growth index of −1.00 or more on day 1 after inoculation of bacteria was selected as a “cosmetic with beneficial skin bacteria-friendly properties” having an effect of maintaining beneficial skin bacteria or enhancing beneficial skin bacteria.
*Bacterial growth index=log10[{Number of viable bacteria (CFU/g)}/{Number of inoculated bacteria (CFU/g)}]

Row | Compound | growth of beneficial bacteria (result in words)
1 | sodium dilauramidoglutamide lysine | did not inhibit the growth of beneficial bacteria
2 | CCOCCOCCOC(=O)C1CCC(C(=O)OCCOCCOCC)CC1 (centres unmarked) [bis-ethoxydiglycol cyclohexane 1,4-dicarboxylate] | inhibit the growth of beneficial bacteria
3 | diethoxyethyl succinate | inhibit the growth of beneficial bacteria
4 | inulin lauryl carbamate | did not inhibit the growth of beneficial bacteria
5 | C=CCCCCCCCCC(=O)OCCCCCCC [heptyl undecylenate] | inhibit the growth of beneficial bacteria
